# What was measured:
# [1] = molecular target: TRα (Homo sapiens, UniProt P10827); assay: nuclear receptor cellular GAL4 reporter assay; type: cell-based; conditions: agonist and antagonist mode; read-out: potency in agonist and antagonist mode
# [2] = molecular target: T1, RARα (Homo sapiens, UniProt P10276); assay: nuclear receptor cellular GAL4 reporter assay; type: cell-based; conditions: agonist and antagonist mode; read-out: potency in agonist and antagonist mode
# T1 construct: expressed in transfected cells
# [3] = molecular target: T2, PPARα (Homo sapiens, UniProt Q07869); assay: nuclear receptor cellular GAL4 reporter assay; type: cell-based; conditions: agonist and antagonist mode; read-out: potency in agonist and antagonist mode
# T2 construct: expressed in transfected cells
# [4] = molecular target: T3, PPARβ (Homo sapiens, UniProt Q03181); assay: nuclear receptor cellular GAL4 reporter assay; type: cell-based; conditions: agonist and antagonist mode; read-out: potency in agonist and antagonist mode
# T3 construct: expressed in transfected cells
# [5] = molecular target: T4, ERα (Homo sapiens, UniProt P03372); assay: nuclear receptor cellular GAL4 reporter assay; type: cell-based; conditions: agonist and antagonist mode; read-out: potency in agonist and antagonist mode
# T4 construct: expressed in transfected cells
# [6] = molecular target: ERRγ (Homo sapiens, UniProt P62508); assay: biochemical TR-FRET assay; conditions: agonist and antagonist mode; read-out: potency in agonist and antagonist mode
# [7] = molecular target: T5, PR (Homo sapiens, UniProt P06401); assay: nuclear receptor cellular GAL4 reporter assay; type: cell-based; conditions: agonist and antagonist mode; read-out: potency in agonist and antagonist mode
# T5 construct: expressed in transfected cells
# [8] = molecular target: T6, AT1 (h) (Homo sapiens, UniProt P30556); assay: Cerep panel; type: binding
# T6 construct: purchased Cerep (receptors, ion channels, transporters); Eurofins Panlabs (kinases)
# Protocol: (§1) A panel of 52 different receptors, ion channels and transporters was tested by Cerep, Inc. (Redmond, WA).
# [9] = molecular target: T7, D1 (h) (Homo sapiens, UniProt P21728); assay: Cerep panel; type: binding
# T7 construct: purchased Cerep (receptors, ion channels, transporters); Eurofins Panlabs (kinases)
# Protocol: as §1
# [10] = molecular target: T8, CXCR2 (h) (IL-8B) (Homo sapiens, UniProt P25025); assay: Cerep panel; type: binding
# T8 construct: purchased Cerep (receptors, ion channels, transporters); Eurofins Panlabs (kinases)
# Protocol: as §1
# [11] = molecular target: T9, H1 (h) (Homo sapiens, UniProt P35367); assay: Cerep panel; type: binding
# T9 construct: purchased Cerep (receptors, ion channels, transporters); Eurofins Panlabs (kinases)
# Protocol: as §1
# [12] = molecular target: T10, MC4 (h) (Homo sapiens, UniProt P32245); assay: Cerep panel; type: binding
# T10 construct: purchased Cerep (receptors, ion channels, transporters); Eurofins Panlabs (kinases)
# Protocol: as §1
# [13] = molecular target: T11, NK3 (h) (Homo sapiens, UniProt P29371); assay: Cerep panel; type: binding
# T11 construct: purchased Cerep (receptors, ion channels, transporters); Eurofins Panlabs (kinases)
# Protocol: as §1
# [14] = molecular target: T12, Y1 (h) (Homo sapiens, UniProt P25929); assay: Cerep panel; type: binding
# T12 construct: purchased Cerep (receptors, ion channels, transporters); Eurofins Panlabs (kinases)
# T12 sequence (P25929 whole entry): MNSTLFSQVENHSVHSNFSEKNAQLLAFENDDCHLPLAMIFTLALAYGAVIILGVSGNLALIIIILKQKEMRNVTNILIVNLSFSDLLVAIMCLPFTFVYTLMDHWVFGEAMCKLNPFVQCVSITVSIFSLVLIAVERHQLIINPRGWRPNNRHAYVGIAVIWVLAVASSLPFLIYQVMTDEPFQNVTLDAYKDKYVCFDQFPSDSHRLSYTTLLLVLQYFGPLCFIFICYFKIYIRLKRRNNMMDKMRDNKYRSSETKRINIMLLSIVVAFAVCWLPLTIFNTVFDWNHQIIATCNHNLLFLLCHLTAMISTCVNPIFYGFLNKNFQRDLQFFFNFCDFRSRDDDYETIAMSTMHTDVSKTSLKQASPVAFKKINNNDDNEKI
# Protocol: as §1
# [15] = molecular target: T13, delta 2 (h) (DOP) (Homo sapiens, UniProt P41143); assay: Cerep panel; type: binding
# T13 construct: purchased Cerep (receptors, ion channels, transporters); Eurofins Panlabs (kinases)
# Protocol: as §1
# [16] = molecular target: T14, VIP1 (h) (VPAC1) (Homo sapiens, UniProt P32241); assay: Cerep panel; type: binding
# T14 construct: purchased Cerep (receptors, ion channels, transporters); Eurofins Panlabs (kinases)
# T14 sequence (P32241 31-457): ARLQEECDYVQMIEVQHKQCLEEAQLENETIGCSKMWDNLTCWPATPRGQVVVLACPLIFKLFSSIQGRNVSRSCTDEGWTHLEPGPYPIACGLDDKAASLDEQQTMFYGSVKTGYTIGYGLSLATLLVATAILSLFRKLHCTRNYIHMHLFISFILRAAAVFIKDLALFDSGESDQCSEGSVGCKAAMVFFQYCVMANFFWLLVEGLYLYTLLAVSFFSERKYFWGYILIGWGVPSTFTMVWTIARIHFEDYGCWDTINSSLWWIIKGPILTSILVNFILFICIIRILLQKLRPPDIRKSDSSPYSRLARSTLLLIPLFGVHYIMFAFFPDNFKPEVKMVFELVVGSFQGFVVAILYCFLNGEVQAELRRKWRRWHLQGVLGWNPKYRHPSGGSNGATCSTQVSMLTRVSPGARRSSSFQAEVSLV
# Protocol: as §1
# [17] = molecular target: T15, V1a (h) (Homo sapiens, UniProt P37288); assay: Cerep panel; type: binding
# T15 construct: purchased Cerep (receptors, ion channels, transporters); Eurofins Panlabs (kinases)
# T15 sequence (P37288 whole entry): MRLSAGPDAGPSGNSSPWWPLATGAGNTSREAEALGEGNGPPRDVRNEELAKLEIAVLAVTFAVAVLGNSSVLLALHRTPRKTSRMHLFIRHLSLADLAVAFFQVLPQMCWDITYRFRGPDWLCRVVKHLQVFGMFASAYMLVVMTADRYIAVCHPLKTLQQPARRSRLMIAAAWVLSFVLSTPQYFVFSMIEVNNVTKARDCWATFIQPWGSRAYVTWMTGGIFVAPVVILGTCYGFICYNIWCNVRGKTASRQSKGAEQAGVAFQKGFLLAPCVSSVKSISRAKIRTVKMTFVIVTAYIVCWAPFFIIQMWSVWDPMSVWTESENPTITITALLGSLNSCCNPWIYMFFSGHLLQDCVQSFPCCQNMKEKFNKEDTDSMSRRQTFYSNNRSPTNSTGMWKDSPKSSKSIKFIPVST
# Protocol: as §1
# [18] = tested on: Cl- channel; assay: Cerep panel; type: binding
# Protocol: as §1
# [19] = molecular target: T16, DA-T transporter (h) (Homo sapiens, UniProt Q01959); assay: Cerep panel; type: binding
# T16 construct: purchased Cerep (receptors, ion channels, transporters); Eurofins Panlabs (kinases)
# Protocol: (§2) 28 GPCRs were evaluated through cAMP or calcium FLIPR assays[67]. A panel of 52 different receptors, ion channels and transporters was tested by Cerep, Inc. (Redmond, WA).
# [20] = molecular target: T17, 5-HT-T (Homo sapiens, UniProt P31645); assay: Cerep panel; type: binding
# T17 construct: purchased Cerep (receptors, ion channels, transporters); Eurofins Panlabs (kinases)
# T17 sequence (P31645 whole entry): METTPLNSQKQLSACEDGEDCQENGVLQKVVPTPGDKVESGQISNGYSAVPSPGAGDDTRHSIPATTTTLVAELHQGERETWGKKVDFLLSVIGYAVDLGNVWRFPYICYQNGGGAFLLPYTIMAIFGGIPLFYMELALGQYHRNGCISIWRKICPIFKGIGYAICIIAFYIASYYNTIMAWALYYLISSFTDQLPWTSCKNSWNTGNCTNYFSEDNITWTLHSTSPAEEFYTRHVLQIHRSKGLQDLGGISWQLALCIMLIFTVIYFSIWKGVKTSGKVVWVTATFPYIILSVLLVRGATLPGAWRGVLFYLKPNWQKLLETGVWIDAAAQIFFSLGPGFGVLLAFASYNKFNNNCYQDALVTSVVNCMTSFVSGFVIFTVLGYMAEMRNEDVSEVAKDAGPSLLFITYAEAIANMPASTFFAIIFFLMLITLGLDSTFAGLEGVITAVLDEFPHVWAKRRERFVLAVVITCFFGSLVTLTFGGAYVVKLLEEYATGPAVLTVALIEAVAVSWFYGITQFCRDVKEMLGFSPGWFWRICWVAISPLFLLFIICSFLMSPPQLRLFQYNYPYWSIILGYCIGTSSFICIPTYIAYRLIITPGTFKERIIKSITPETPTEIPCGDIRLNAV
# Protocol: as §2
# [21] = molecular target: 5HT1A (Homo sapiens, UniProt P08908); assay: GPCR panel, cAMP or calcium FLIPR assays; type: cell-based
# Protocol: as §2
# [22] = molecular target: 5HT2B (Homo sapiens, UniProt P41595); assay: GPCR panel, cAMP or calcium FLIPR assays; type: cell-based
# Chain of 5HT2B (P41595 whole entry, species assumed): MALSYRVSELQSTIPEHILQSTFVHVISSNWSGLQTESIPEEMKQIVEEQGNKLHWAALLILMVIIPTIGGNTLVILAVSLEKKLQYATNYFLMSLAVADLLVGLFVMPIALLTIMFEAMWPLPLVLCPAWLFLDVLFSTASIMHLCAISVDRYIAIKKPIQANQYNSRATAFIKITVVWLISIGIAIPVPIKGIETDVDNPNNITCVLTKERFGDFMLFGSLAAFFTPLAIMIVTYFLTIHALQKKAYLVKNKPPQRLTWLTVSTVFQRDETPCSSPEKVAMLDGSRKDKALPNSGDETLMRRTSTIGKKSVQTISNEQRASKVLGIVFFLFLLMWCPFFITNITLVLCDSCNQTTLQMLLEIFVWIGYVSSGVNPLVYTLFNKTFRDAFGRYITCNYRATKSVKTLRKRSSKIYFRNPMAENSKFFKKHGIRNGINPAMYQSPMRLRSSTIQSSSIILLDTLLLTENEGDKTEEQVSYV
# Protocol: (§3) 28 GPCRs were evaluated through cAMP or calcium FLIPR assays[67].
# [23] = molecular target: 5HT6 (Homo sapiens, UniProt P50406); assay: GPCR panel, cAMP or calcium FLIPR assays; type: cell-based
# Protocol: as §3
# [24] = molecular target: ADRA2C (Homo sapiens, UniProt P18825); assay: GPCR panel, cAMP or calcium FLIPR assays; type: cell-based
# Protocol: as §3
# [25] = molecular target: ADRB1 (Homo sapiens, UniProt P08588); assay: GPCR panel, cAMP or calcium FLIPR assays; type: cell-based
# Chain of ADRB1 (P08588 whole entry): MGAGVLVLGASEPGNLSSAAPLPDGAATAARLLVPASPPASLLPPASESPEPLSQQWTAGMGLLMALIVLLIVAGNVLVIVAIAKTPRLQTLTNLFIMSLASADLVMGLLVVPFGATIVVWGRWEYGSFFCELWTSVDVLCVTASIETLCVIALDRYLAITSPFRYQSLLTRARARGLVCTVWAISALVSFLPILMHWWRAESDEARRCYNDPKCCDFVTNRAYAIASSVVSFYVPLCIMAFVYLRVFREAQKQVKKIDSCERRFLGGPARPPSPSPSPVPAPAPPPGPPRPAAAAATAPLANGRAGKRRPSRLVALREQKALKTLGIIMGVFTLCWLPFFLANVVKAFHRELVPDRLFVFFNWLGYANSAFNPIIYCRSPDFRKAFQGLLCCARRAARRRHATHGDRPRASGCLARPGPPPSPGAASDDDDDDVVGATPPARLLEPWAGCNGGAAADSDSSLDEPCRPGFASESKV
# Protocol: as §3
# [26] = molecular target: ETA (Homo sapiens, UniProt P25101); assay: GPCR panel, cAMP or calcium FLIPR assays; type: cell-based
# Chain of ETA (P25101 21-427): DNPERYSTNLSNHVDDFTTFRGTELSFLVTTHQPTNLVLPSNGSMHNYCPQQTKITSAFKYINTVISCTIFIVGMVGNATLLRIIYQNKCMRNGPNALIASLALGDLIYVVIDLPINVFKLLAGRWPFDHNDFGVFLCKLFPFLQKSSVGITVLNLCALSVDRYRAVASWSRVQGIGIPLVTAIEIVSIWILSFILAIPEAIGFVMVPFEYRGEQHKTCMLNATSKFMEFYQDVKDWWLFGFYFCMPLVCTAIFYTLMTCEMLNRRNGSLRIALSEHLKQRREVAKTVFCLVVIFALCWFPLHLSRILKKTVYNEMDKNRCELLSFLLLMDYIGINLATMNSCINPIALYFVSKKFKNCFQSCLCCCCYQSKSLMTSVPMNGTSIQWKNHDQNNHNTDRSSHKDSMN
# Protocol: as §3
# [27] = molecular target: H1 (Homo sapiens, UniProt P35367); assay: GPCR panel, cAMP or calcium FLIPR assays; type: cell-based
# Protocol: as §3
# [28] = molecular target: M1 (Homo sapiens, UniProt P11229); assay: GPCR panel, cAMP or calcium FLIPR assays; type: cell-based
# Chain of M1 (P11229 whole entry): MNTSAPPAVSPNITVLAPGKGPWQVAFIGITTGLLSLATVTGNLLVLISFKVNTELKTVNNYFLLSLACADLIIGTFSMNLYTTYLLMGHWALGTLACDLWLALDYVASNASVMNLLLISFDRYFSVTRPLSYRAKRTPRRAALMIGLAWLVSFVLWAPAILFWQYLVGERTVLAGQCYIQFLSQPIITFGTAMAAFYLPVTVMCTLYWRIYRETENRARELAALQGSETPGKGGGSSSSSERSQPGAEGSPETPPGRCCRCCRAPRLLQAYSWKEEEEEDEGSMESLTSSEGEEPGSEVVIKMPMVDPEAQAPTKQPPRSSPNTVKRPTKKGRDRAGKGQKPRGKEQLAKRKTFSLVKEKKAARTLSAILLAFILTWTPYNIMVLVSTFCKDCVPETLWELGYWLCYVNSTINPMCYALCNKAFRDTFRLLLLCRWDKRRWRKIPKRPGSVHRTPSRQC
# Protocol: as §3
# [29] = molecular target: V1A (Homo sapiens, UniProt P37288); assay: GPCR panel, cAMP or calcium FLIPR assays; type: cell-based
# Chain of V1A (P37288 whole entry): as the sequence (P37288 whole entry) above
# Protocol: 28 GPCRs were evaluated through cAMP or calcium FLIPR assays[67]. A panel of 52 different receptors, ion channels and transporters was tested by Cerep, Inc. (Redmond, WA). Kinase selectivity was conducted by Eurofins Panlabs Inc (St Charles, MO).
# [30] = molecular target: T18, IGF-1R(h) (Homo sapiens, UniProt P08069); assay: Kinase panel; type: biochemical
# T18 construct: purchased Cerep (receptors, ion channels, transporters); Eurofins Panlabs (kinases)
# Protocol: (§4) Kinase selectivity was conducted by Eurofins Panlabs Inc (St Charles, MO).
# [31] = molecular target: T19, IKKβ(h) (Homo sapiens, UniProt O14920); assay: Kinase panel; type: biochemical
# T19 construct: purchased Cerep (receptors, ion channels, transporters); Eurofins Panlabs (kinases)
# Protocol: as §4
# [32] = molecular target: T20, JAK3(h) (Homo sapiens, UniProt P52333); assay: Kinase panel; type: biochemical
# T20 construct: purchased Cerep (receptors, ion channels, transporters); Eurofins Panlabs (kinases)
# T20 sequence (P52333 whole entry): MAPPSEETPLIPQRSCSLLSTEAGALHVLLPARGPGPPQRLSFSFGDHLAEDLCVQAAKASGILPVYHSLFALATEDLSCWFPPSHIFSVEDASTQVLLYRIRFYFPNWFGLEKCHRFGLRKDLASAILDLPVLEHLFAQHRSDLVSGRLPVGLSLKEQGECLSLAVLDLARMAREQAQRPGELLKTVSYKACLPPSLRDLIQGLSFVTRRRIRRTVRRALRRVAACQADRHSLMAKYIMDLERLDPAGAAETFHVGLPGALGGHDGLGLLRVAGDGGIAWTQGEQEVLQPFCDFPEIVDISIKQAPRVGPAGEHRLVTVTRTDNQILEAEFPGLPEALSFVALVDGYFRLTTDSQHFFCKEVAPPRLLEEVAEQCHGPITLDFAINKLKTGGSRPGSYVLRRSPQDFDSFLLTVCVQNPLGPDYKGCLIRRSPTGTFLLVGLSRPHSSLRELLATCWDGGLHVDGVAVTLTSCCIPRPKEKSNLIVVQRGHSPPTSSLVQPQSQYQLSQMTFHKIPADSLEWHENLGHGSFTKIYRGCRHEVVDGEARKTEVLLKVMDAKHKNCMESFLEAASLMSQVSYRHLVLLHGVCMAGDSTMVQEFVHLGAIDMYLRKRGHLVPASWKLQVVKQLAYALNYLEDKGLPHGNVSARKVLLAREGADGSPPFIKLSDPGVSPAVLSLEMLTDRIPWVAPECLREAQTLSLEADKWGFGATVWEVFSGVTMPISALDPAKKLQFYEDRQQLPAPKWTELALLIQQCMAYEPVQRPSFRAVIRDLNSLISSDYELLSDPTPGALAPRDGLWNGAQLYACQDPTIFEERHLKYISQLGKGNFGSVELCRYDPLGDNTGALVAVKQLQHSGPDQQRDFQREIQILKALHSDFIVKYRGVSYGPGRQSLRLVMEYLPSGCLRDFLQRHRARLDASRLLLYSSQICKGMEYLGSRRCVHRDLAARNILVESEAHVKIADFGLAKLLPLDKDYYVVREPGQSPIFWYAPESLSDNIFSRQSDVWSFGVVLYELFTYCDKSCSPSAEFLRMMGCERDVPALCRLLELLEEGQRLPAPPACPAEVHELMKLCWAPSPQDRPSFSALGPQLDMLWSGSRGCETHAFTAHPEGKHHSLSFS
# Protocol: as §4
# [33] = molecular target: T21, Rsk3(h) (Homo sapiens, UniProt Q15349); assay: Kinase panel; type: biochemical
# T21 construct: purchased Cerep (receptors, ion channels, transporters); Eurofins Panlabs (kinases)
# Protocol: as §4
# [34] = molecular target: T22, SAPK4(h) (Homo sapiens, UniProt O15264); assay: Kinase panel; type: biochemical
# T22 construct: purchased Cerep (receptors, ion channels, transporters); Eurofins Panlabs (kinases)
# Protocol: as §4
# [35] = tested on: ex vivo stimulated IL-17A production in the blood; assay: mouse PK/PD model, ex vivo stimulated IL-17A production; conditions: 100 mg/kg oral; for inhibition at 100 mg/kg: 5-fold diluted blood
# Source text: Compound concentrations are also listed as undiluted (measured) and diluted (extrapolated) in Supplementary Table S2.
smiles,measurement,setting,value
CC1CCCN1C(=O)c1nc(C(=O)NCC(C)(C)O)sc1-c1ccc(C(O)(C(F)(F)F)C(F)(F)F)c(Cl)c1Cl (centres unmarked) [JNJ-61803534],IC50,[1],> 1.5 µM
same,IC50,[2],> 1.5 µM
same,IC50,[3],> 1.5 µM
same,IC50,[4],> 1.5 µM
same,IC50,[5],> 1.5 µM
same,IC50,[6],> 10 µM
same,IC50,[7],> 1.5 µM
same,inhibition at 1 µM,[8],< 10%
same,inhibition at 10 µM,[8],< 10%
same,inhibition at 1 µM,[9],< 10%
same,inhibition at 10 µM,[9],< 10%
same,inhibition at 1 µM,[10],< 10%
same,inhibition at 10 µM,[10],< 10%
same,inhibition at 1 µM,[11],< 10%
same,inhibition at 10 µM,[11],< 10%
same,inhibition at 1 µM,[12],< 10%
same,inhibition at 10 µM,[12],< 10%
same,inhibition at 1 µM,[13],< 10%
same,inhibition at 10 µM,[13],< 10%
same,inhibition at 1 µM,[14],< 10%
same,inhibition at 10 µM,[14],< 10%
same,inhibition at 1 µM,[15],< 10%
same,inhibition at 10 µM,[15],< 10%
same,inhibition at 1 µM,[16],< 10%
same,inhibition at 10 µM,[16],< 10%
same,inhibition at 1 µM,[17],< 10%
same,inhibition at 10 µM,[17],20.3%
same,% Inhibition at 1 µM,[18]; 1 µM,10.5%
same,% Inhibition at 10 µM,[18]; 10 µM,86.4%
same,inhibition at 1 µM,[19],< 10%
same,inhibition at 10 µM,[19],< 10%
same,inhibition at 1 µM,[20],< 10%
same,inhibition at 10 µM,[20],< 10%
same,EC50,[21]; agonist,> 12.5 µM
same,IC50,[21]; antagonist,> 12.5 µM
same,EC50,[22]; agonist,> 10 µM
same,IC50,[22]; antagonist,> 10 µM
same,EC50,[23]; agonist,> 12.5 µM
same,IC50,[23]; antagonist,> 12.5 µM
same,EC50,[24]; agonist,> 12.5 µM
same,IC50,[24]; antagonist,> 12.5 µM
same,EC50,[25]; agonist,> 12.5 µM
same,IC50,[25]; antagonist,> 12.5 µM
same,EC50,[26]; agonist,> 10 µM
same,IC50,[26]; antagonist,> 10 µM
same,EC50,[27]; agonist,> 10 µM
same,IC50,[27]; antagonist,> 10 µM
same,EC50,[28]; agonist,> 10 µM
same,IC50,[28]; antagonist,> 10 µM
same,EC50,[29]; agonist,> 10 µM
same,IC50,[29]; antagonist,> 10 µM
same,activity at 1 µM,[30],95%
same,activity at 10 µM,[30],106%
same,activity at 1 µM,[31],75%
same,activity at 10 µM,[31],138%
same,activity at 1 µM,[32],109%
same,activity at 10 µM,[32],114%
same,activity at 1 µM,[33],107%
same,activity at 10 µM,[33],104%
same,activity at 1 µM,[34],100%
same,activity at 10 µM,[34],112%
same,inhibition at 100 mg/kg,[35]; 1 h post-dose,86 ± 6.7%
same,inhibition at 100 mg/kg,[35]; 2 h post-dose,89 ± 7.1%
same,inhibition at 100 mg/kg,[35]; 4 h post-dose,72 ± 14%
same,inhibition at 100 mg/kg,[35]; 7 h post-dose,75 ± 7.5%
same,inhibition at 100 mg/kg,[35]; 12 h post-dose,62 ± 17%
same,inhibition at 100 mg/kg,"[35]; 18 h post-dose, without statistical significance",30 ± 60%
same,EC50 at 100 mg/kg,"[35]; concentration in 5-fold diluted plasma, read-out: compound concentration for 50% inhibition of ex vivo IL-17A",0.24 to 0.86 µM

# From article PMC8155022 (Scientific Reports, 2021)
